# According to patent US20090270306A1, “Glass Storage” (priority 2005, published 2009):
# Like-named read-outs stand apart in the source and are kept apart here.
# Legend:
# [1] = initial pKa, cited from earlier work
# [2] = 1% solution in water
# [3] = pH behaviour on addition of sodium hydroxide (FIG. 1); type: physicochemical; conditions: 0.2 g in 200 ml water, 0.1M sodium hydroxide added; during almost the entire addition
# [4] = other suitable buffer compounds (Table 3)
# [5] = buffers tested for stain inhibitor performance (Table 1)
SMILES,"pKa [1, 4]","pKa [1, 5]",also measured
"O=S(=O)(O)CCNC1CCCCC1 [CHES, 2-(cyclohexylamino) ethanesulphonic acid]",9.5,–,–
"O=S(=O)(O)CC(O)CN1CCN(CC(O)CS(=O)(=O)O)CC1 (stereo not drawn) [POPSO, piperazine-N-N′-bis (2-hydroxypropanesulphonic acid)]",7.8,–,–
"O=S(=O)(O)CCCNC(CO)(CO)CO [TAPS, N-[tris(hydroxymethyl)methyl]-3-aminopropanesulphonic acid]",–,8.4,–
"O=C(O)CNC(CO)(CO)CO [Tricine, N-[tris (hydroxymethyl)methy] glycine]",–,8.2,–
O=C(O)CCCCC(=O)O [adipic acid],–,–,pH of solution [2]: 2.8; pH during addition of alkali [3]: < 5
